We go through seven compounds from paper PMC4005788 (Nature medicine, 2013).

Series [1] concerns NG108-cl cells. Nature of the series: Clomeleon assay of [Cl−]i in NG108-cl cells. It is filed as cell-based.
Series [2] deals with PNI rats. In words: Paw withdrawal threshold. The class given is in vivo, rat.
In series [3] the target is hERG channel (Homo sapiens, UniProt Q12809). In words: hERG inhibition of tail current, automated patch-clamp. The class given is cell-based. For orientation: hERG is a cardiac potassium channel; its block is linked to QT prolongation.
For series [4], the system named is rat hepatoma H4IIE cells. In words: Caspase-3 activation in H4IIE cells. The class given is cell-based. Particulars: 24-h exposure, up to 300 μM.
Series [5] deals with GABAA receptor. In words: Evoked GABAA currents in SDH neurons with VU0240551. The class given is cell-based, rat. Particulars: acute application, 25 and 100 μM, in the presence of VU0240551.
The target of series [6] is T1, KCC2 (Homo sapiens, UniProt Q9H2X9).
T1 sequence (Q9H2X9 1-1139): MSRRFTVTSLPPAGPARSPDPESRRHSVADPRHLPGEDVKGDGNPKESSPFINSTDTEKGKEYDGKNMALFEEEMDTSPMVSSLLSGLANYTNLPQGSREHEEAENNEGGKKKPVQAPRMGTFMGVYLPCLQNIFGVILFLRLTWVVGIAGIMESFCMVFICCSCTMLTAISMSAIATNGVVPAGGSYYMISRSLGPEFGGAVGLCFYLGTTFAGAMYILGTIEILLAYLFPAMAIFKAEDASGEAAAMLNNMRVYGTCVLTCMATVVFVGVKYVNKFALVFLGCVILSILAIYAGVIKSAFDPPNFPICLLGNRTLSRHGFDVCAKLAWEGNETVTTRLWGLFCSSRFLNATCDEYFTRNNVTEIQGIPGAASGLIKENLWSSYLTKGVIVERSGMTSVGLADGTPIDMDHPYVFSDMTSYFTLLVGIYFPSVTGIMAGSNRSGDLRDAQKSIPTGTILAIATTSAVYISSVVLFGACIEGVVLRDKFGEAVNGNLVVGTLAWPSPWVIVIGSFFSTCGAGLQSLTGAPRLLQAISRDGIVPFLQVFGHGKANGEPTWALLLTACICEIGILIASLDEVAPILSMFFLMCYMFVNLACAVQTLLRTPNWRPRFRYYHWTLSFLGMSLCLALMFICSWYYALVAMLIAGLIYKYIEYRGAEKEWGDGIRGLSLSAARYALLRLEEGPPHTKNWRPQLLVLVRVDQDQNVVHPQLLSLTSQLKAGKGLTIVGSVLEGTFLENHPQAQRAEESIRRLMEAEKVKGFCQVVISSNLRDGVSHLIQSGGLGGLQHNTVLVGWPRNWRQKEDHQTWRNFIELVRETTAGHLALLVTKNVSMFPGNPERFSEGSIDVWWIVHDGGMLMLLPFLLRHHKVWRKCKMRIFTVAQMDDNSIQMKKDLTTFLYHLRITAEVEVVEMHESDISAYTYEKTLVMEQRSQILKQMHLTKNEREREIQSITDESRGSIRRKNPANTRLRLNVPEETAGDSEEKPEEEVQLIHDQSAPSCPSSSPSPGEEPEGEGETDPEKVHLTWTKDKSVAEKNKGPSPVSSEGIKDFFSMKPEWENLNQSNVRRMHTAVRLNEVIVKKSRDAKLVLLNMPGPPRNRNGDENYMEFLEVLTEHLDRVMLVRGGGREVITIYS
In words: Rb+ flux assay in X. laevis oocytes expressing KCC2. The class given is cell-based. The settings on record: 200 nM pre-incubation, 45 min Rb+ influx, vs vehicle.

Series [7] addresses recombinant α1β2γ2 GABAA receptors (Homo sapiens, UniProt P14867+P18507+P47870). In words: GABAA receptor automated whole cell patch-clamp in CHO cells. Particulars: 50 μM CLP257, CHO cells. The class given is cell-based. Background: Patch clamp records ionic current or voltage across a cell membrane.
Series [8] deals with 55 radioligand-receptor interactions. Nature of the series: Radioligand competition binding screen, whole panel. Particulars: 10 μM CLP257, 55 interactions.
Series [9] deals with T2, KCC2 (Rattus norvegicus, UniProt Q63633).
T2 sequence (Q63633 1-1116 isoform Q63633-2): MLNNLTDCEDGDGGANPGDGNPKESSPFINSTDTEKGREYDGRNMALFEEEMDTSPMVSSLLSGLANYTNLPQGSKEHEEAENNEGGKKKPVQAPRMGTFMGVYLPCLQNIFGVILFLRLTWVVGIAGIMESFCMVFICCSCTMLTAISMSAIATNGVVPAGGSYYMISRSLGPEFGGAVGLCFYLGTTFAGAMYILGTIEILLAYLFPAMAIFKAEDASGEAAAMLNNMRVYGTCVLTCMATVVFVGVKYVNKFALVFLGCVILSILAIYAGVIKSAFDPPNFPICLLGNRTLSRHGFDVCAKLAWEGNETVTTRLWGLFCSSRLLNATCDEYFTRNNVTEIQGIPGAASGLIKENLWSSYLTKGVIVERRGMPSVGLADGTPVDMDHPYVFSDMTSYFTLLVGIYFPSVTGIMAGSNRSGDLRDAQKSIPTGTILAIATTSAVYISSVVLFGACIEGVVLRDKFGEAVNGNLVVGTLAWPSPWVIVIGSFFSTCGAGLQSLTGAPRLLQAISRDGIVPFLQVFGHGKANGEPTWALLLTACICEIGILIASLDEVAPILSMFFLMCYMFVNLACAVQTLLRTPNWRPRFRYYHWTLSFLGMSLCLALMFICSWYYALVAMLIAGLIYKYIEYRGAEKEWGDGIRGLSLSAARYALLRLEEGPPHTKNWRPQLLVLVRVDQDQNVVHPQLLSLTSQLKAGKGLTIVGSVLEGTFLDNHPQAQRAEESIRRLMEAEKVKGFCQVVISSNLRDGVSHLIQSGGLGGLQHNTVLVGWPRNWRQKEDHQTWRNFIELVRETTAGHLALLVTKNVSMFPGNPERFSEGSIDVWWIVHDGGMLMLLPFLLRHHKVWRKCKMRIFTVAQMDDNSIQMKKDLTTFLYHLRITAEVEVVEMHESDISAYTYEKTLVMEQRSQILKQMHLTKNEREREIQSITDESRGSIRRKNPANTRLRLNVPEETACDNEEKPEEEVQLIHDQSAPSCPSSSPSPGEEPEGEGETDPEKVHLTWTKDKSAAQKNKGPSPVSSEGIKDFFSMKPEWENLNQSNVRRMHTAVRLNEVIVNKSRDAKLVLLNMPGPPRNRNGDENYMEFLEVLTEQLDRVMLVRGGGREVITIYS
Nature of the series: Cell surface biotinylation and immunoblot of KCC2 in BDNF-treated spinal slices. It is filed as cell-based. The settings on record: 100 μM, BDNF-pretreated slices. On the technique in general: In western blotting, separated proteins are transferred to a membrane and probed.

Series [10] can be described thus: Metabolite analyses. The class given is in vivo. The settings on record: not shown.
For series [11], the target named is T2, KCC2. In words: Imaging of K+-driven Cl− transport. The class given is cell-based. Particulars: for increase of the rate of Cl− accumulation: 25 μM, 15 mM KCl.
The test system of series [12] is superficial dorsal horn (SDH) neurons. Nature of the series: Whole-cell recording of EGABA under Cl− load in superficial dorsal horn neurons. The class given is cell-based, rat. Particulars: 25 μM, BDNF-treated and PNI slices.
Series [13] deals with superficial dorsal horn field responses. It is filed as in vivo, rat. The settings on record: local spinal 100 μM.
Series [14] deals with other CCCs. Nature of the series: Rb+ flux assay in X. laevis oocytes expressing other CCCs. It is filed as cell-based. Particulars: 200 nM pre-incubation.
The subject of series [15] is HEK293-cl cells. Nature of the series: Clomeleon assay of [Cl−]i in HEK293-cl cells. The class given is cell-based, Human. The settings on record: HEK293-cl cells (no KCC2; express NKCC1, KCC1, KCC3, KCC4).
Series [16] is described as follows: Pharmacokinetic analysis in rats. Particulars: rat. The class given is in vivo.
Series [17] deals with rats. In words: Accelerating rotorod assay. Particulars: equipotent oral doses, 2 h post-dose. The class given is in vivo, rat.
The mark [18] stands for this setting: [Cl−]i reduction, clomeleon assay, 5 h exposure.
The mark [19] stands for this setting: 5 h, [Cl−]i reduction, clomeleon assay, 5 h exposure.

Sequence of hERG channel (Q12809 whole entry): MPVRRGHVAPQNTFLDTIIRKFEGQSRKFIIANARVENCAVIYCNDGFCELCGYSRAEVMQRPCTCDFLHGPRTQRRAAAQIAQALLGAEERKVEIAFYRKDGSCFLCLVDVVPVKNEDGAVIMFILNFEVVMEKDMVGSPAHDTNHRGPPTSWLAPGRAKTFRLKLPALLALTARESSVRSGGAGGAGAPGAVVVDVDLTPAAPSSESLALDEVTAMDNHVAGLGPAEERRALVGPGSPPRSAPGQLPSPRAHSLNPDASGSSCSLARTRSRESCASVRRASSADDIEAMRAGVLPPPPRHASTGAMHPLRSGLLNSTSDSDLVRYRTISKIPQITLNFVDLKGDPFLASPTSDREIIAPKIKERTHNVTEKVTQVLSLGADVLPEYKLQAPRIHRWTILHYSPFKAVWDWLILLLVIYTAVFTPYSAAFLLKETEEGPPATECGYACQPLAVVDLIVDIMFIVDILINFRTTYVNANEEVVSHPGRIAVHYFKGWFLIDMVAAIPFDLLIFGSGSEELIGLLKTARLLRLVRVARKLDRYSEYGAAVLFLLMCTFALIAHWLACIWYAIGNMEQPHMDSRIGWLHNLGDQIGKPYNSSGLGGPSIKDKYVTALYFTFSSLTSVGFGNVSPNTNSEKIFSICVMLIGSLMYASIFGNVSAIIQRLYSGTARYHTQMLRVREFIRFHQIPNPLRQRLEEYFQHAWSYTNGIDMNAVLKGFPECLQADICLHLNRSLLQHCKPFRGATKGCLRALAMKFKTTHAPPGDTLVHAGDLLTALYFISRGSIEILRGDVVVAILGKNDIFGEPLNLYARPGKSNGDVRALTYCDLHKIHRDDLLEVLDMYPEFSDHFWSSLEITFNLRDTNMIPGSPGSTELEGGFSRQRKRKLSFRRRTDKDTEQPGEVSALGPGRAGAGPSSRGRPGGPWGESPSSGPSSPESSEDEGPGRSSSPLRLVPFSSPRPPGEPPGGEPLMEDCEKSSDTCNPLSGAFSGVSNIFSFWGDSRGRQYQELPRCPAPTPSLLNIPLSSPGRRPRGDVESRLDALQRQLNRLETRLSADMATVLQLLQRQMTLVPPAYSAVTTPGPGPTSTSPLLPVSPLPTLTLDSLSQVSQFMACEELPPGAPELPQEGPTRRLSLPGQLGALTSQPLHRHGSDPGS
Sequence of recombinant α1β2γ2 GABAA receptors (P14867 28-456): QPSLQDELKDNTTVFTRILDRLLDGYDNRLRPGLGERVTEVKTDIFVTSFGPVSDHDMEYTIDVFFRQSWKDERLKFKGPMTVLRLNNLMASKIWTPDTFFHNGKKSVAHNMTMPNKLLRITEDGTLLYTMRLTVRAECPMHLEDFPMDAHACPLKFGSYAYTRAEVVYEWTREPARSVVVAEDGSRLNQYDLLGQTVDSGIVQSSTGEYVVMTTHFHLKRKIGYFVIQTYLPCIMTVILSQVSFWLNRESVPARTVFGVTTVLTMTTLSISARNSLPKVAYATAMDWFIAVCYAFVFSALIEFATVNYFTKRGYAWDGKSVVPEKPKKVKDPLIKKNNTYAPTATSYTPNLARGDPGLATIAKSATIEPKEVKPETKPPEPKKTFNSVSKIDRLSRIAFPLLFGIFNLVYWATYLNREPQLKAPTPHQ
Sequence of recombinant α1β2γ2 GABAA receptors (P47870 25-512 limits assumed): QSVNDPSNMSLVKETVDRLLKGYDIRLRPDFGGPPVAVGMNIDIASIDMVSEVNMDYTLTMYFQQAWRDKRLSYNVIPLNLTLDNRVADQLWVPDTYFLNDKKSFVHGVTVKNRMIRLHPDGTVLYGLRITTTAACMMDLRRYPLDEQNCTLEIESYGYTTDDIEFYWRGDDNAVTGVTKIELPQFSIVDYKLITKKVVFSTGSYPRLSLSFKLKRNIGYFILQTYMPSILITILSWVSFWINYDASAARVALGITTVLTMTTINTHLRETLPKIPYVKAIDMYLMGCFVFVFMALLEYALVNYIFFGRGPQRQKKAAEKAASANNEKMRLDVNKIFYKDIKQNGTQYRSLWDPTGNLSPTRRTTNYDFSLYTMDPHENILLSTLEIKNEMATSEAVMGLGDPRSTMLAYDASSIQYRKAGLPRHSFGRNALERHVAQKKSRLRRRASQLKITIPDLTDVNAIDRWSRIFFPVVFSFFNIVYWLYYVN
Sequence of recombinant α1β2γ2 GABAA receptors (P18507 40-475): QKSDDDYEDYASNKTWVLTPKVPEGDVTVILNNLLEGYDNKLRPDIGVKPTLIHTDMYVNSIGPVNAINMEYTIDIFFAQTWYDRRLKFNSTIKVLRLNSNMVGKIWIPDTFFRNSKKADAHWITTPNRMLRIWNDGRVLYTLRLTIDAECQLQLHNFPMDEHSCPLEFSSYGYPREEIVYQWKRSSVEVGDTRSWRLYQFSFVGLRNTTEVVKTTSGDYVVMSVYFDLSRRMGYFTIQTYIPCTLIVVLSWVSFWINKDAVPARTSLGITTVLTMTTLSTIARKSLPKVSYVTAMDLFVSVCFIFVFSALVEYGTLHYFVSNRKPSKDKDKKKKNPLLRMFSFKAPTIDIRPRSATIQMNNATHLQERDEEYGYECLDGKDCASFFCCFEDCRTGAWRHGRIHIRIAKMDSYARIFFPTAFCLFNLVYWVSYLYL

In general, EC50 refers to the concentration giving half of the maximal effect. Regarding `O=C1N=C(N2CCCCC2)S/C1=C\c1ccccc1O` [CL-058, (5Z)-5-[(2-hydroxyphenyl)methylidene]-2-(piperidin-1-yl)-4,5-dihydro-1,3-thiazol-4-one], in series [1] (setting [18]), the EC50 was determined as 31.5 µM.
As a reminder, the IC50 is the concentration needed to halve the response being measured. Read a low IC50 as higher potency. The half-life is how long it takes for the measured level to halve. Take `O=C1N=C(N2CCCCN2)S/C1=C\c1ccc(F)cc1O` [CLP257, (5Z)-2-(1,2-diazinan-1-yl)-5-[(4-fluoro-2-hydroxyphenyl)methylidene]-4,5-dihydro-1,3-thiazol-4-one]: the “maximal analgesic effect compared with Gabapentin” value in [2] (IP) is reported as “much weaker than that of Gabapentin”. Further, the mechanical withdrawal thresholds entry in series [2] (IP, peaking at 100 mg kg^−1, 2 h post-injection) is listed as “increased withdrawal thresholds”. In addition, it took 449 µM to reach half-maximal inhibition in series [3] (IC50). The Caspase-3 activation entry in series [4] is reported as “not detected”. Also, the “effect on evoked GABAA currents” value in [5] is “no effect”. The “increase of KCC2 transport activity (Rb+ influx)” value in series [6] was 61%. For the same compound, the “agonist effect relative to the effect of 5 μM muscimol” value in series [7] is recorded as under 0.2%. In series [8], the “inhibition of radioligand-receptor interactions, maximum over the panel” value is reported as at most 30%. Further, in series [9], the “cell surface expression of KCC2 monomers and dimers” value is listed as “increased”; the “total KCC2 expression” value is “not significantly affected”. Moreover, in [10], the “metabolism of the hydroxyl moiety” value was “rapidly undergoes glucuronidation”. In [11] (BDNF-treated spinal slices), the “increase of the rate of Cl− accumulation” value stood at 26%. In addition, the “increase of the rate of Cl− accumulation” value in series [11] (PNI spinal slices) stood at 45%. Also, in [11] (100 μM, BDNF-treated slices), the “Cl− transport” value is “completely restored Cl^− transport to control levels”. For the same compound, in series [12], the “EGABA (reversal potential for GABAA currents)” value is listed as “hyperpolarized”. Moreover, in series [13] (animals with nerve injury (PNI)), the evoked field responses result is recorded as “renormalized”. Also, the “effect on the stimulus-response relationship of evoked field responses” value in series [13] (naïve animals, 2.5 to 135 g (mm^2)^−1) is “no effect”. In addition, the “change of transport activity (Rb+ influx) in other CCCs” value in series [14] is on record as “no change”. Further, in [1] (setting [19]), the midpoint of the response, the EC50, lay at 0.616 µM. Further, the “Maximal [Cl−]i reduction” value in series [1] (NG108-cl cells) is on record as ~ 40%. In series [1] (at maximal effect), the “drop from resting [Cl−]i of 57 mM” value is listed as 23 mM. In addition, the “change in [Cl−]i” value in series [15] was “no change”. This compound also registered a half-life in [16] (male, Sprague-Dawley, plasma) of under 15 min.
For the compound `O=C1N=C(N2CCCCN2)S/C1=C\c1ccc(F)cc1OC(=O)N1CCCC1` [CLP290, 2-{[(5Z)-2-(1,2-diazinan-1-yl)-4-oxo-4,5-dihydro-1,3-thiazol-5-ylidene]methyl}-5-fluorophenyl pyrrolidine-1-carboxylate], in series [2] (PO, 100 mg kg^−1 vs Pregabalin 30 mg kg^−1), the “maximal oral analgesic efficacy” value is given as “equivalent to that of Pregabalin”. Half-maximal inhibition in series [3] (IC50) required 224 µM. Moreover, the “motor function on accelerating rotorod” value in series [17] is reported as “no effect”. In [16] (analyte CLP257 after CLP290), the “maximal plasma concentration and exposure of CLP257 vs native CLP257” value was “improved maximal plasma concentration and exposure”.
Consider `Oc1cc(F)ccc1/C=C1\SC(N2CCCCN2)=NC1=S` [CLP355, (5Z)-2-(1,2-diazinan-1-yl)-5-[(4-fluoro-2-hydroxyphenyl)methylidene]-4,5-dihydro-1,3-thiazole-4-thione], for which the EC50 in series [1] (setting [19]) turned out to be 0.05 µM.
Take `O=C1N=C(N2CCCCN2)S/C1=C\c1ccc(F)cc1OC1OC(C(=O)O)C(O)C(O)C1O` (centres unmarked) [CLP386, 6-(2-{[(5Z)-2-(1,2-diazinan-1-yl)-4-oxo-4,5-dihydro-1,3-thiazol-5-ylidene]methyl}-5-fluorophenoxy)-3,4,5-trihydroxyoxane-2-carboxylic acid]: the “EC50 (μM)” value in series [1] (setting [18]) is “inactive”.
As for `CC(C)C[C@H](CN)CC(=O)O` [Pregabalin, reference compound], the “motor function on accelerating rotorod” value in series [17] is given as “depressed motor function”.
Turning to `Cc1csc(NC(=O)CSc2ccc(-c3ccccc3)nn2)n1` [VU0240551, reference compound], the “antagonism of the [Cl−]i response to CLP257” value in series [1] (CLP257 500 nM, 5 h exposure) is recorded as “dose-dependent antagonism”.
